Assay results taken from patent US10059955B2, “Hibiscus cannabinus feruloyl-CoA:monolignol transferase” (Wisconsin Alumni Research Foundation (WARF), priority 2011, dated 2018).
“Also recorded” adds a separate entry of the source.

B1: Hibiscus cannabinus FMT: Hibiscus cannabinus (Kenaf) feruloyl-CoA:monolignol transferase enzyme, SEQ ID NO:9, expressed with N-terminal 6xHis tag in E. coli (protein)
chain: MATHSTIMFSVDRNDVVFVKPFKPTPSQVLSLSTIDNDPNLEIMCHTVFVYQANADFDVKPKDPASIIQEALSKLLVYYYPLAGKMKRETDGKLRIACTADDSVPFLVATADCKLSSLNHLDGIDVHTGKEFALDFASESDGGYYHPLVMQVTKFICGGFTIALSLSHSVCDGFGAAQIFQALTELASGRNEPSVKPVWERQLLVAKPAEEIPRSIVDKDLSAASPYLPTTDIVHACFYVTEESIKTLKMNLIKESKDESITSLEVLSAYIWRARFRALKLSPDKTTMLGMAVGIRRTVKPRLPEGYYGNAFTSANTAMTGKELDQGPLSKAVKQIKESKKLASENDYIWNLMSINEKLRELNSKFEAAAGSTMVITDWRRLGLLEDVDFGWKGSVNMIPLPWNMFGYVDLVLLLPPCKLDQSMKGGARVLVSFPTAAIAKFKEEMDALKHDNKVAGDALVI
modifications: N-terminal 6xHis tag
B2: Angelica sinensis FMT: Angelica sinensis clone Dq155 pdest17 feruloyl-CoA:monolignol transferase enzyme, SEQ ID NO:2 (protein)
chain: MTIMEVQVVSKKMVKPSVPTPDHHKTCKLTAFDQIAPPDQVPIIYFYNSSNIHNIREQLVKSLSETLTKFYPLAGRFVQDGFYVDCNDEGVLYVEAEVNIPLNEFIGQAKKNIQLINDLVPKKNFKDIHSYENPIVGLQMSYFKCGGLAICMYLSHVVADGYTAAAFTKEWSNTTNGIINGDQLVSSSPINFELATLVPARDLSTVIKPAVMPPSKIKETKVVTRRFLFDENAISAFKDHVIKSESVNRPTRVEVVTSVLWKALINQSKLPSSTLYFHLNFRGKTGINTPPLDNHFSLCGNFYTQVPTRFRGGNQTKQDLELHELVKLLRGKLRNTLKNCSEINTADGLFLEAASNFNIIQEDLEDEQVDVRIFTTLCRMPLYETEFGWGKPEWVTIPEMHLEIVFLLDTKCGTGIEALVSMDEADMLQFELDPTISAFAS

Experiments:
[1] = test system: feruloyl-CoA:monolignol transferase from Angelica sinensis; test: FMT enzymatic assay with purified recombinant Angelica sinensis FMT (UPLC detection of product); type: biochemical; conditions: for product formed from acyl-CoA donor substrate: coniferyl alcohol as acceptor, FIGS. 2, 6, 7; for enzyme activity with monolignol as acyl acceptor substrate: feruloyl-CoA as acyl donor, FIGS. 2, 4, 5
Method: The feruloyl-CoA, p-coumaroyl-CoA, and caffeoyl-CoA substrates used in the FMT assay were enzymatically synthesized using the tobacco 4-coumarate-CoA-ligase (4CL) with a c-terminal HIS tag in pCRT7/CT TOPO, provided by Eran Pichersky. Following a method modified from Beuerle and Pichersky (Anal. Biochem. 302(2): 305-12 (2001)) 3.3 mg of ferulic acid, coumaric acid or caffeic acid, 2 mg coenzyme A, and 6.9 mg ATP were added to 50 mM Tris-hydrochloride pH 8 and 2.5 mM magnesium chloride in a final volume of 10 ml. The reaction was started by adding 0.25 mg 4CL, protein purified as described by the method of Beurerle and Pichershy. After a five-hour incubation at room temperature, additional 6.9 mg ATP, 2 mg coenzyme A, and 0.25 mg purified 4CL were added and the reaction was incubated overnight. The CoA esters were purified on an SPE cartridge as described in Beuerle and Pichersky (2001).
(§1) The FMT activity assay contained 100 mM MOPS pH 6.8, 1 mM dithiothreitol (DTT), 1 mM feruloyl-CoA, 1 mM coniferyl alcohol, 3.9 μg of purified FMT protein and deionized water to a volume of 50 μL. After a 30-minute incubation, 1 μL of 10 M hydrochloric acid was added to stop the reaction. Because the product synthesized in the reaction, coniferyl ferulate (CAFA), is insoluble, 50 μL of methanol was added to solubilize the CAFA. Prior to UPLC, protein and insoluble material were removed by filtering through an Amicon Ultracel 10K membrane filter (Millipore). The flow-through was analyzed using an Acquity Ultra Performance LC with an Acquity UPLC BEH C18 1.7 μm 2.1×100 mm column and the Acquity Console and Empower 2 Software, all from Waters Corporation. The solvents used in this method were solvent A, 0.1% trifluoroacetic acid, and solvent B, 100% acetonitrile. Samples were analyzed using the following gradient conditions, 13% B, for 5 minutes, 1 minute linear gradient to 42% B, held for 4 minutes, 1 minute linear gradient to 100% B, held for 1 minutes and 3 minutes at 13% B with a flow rate of 0.3 ml/minute. This method was then used to analyze a 10 μL injection of each assay reaction; standards for each of the substrates along with chemically synthesized CAFA were used to determine retention times for each compound.
Purified recombinant enzyme was assayed for FMT activity using a reaction mixture containing 2 mM coniferyl alcohol, […], 100 mM HEPES pH 7.4 and 1 mM DTT. The second most abundant BAHD acyltransferase gene when incubated with Coniferyl alcohol and feruloyl-CoA produced a compound with the retention time of authentic coniferyl ferulate (CAFA) (FIG. 2). […] The addition of methanol to 50% after stopping the enzyme with acid was required to analyze the product by UPLC. The insolubility of the product made partial purification easy as the product was separated from the substrates by centrifugation.

[2] = Solubility of the assay product coniferyl ferulate in the aqueous reaction mixture; type: physicochemical; conditions: before addition of methanol to 50%
Method: as §1, with “compound. […]” for “compound.”

Hibiscus cannabinus FMT = test: FMT enzymatic assay with purified Kenaf FMT (UPLC detection of coniferyl ferulate); type: biochemical; conditions: Ni2+ column fractions 29 and 30; 1 mM feruloyl CoA, 1 mM coniferyl alcohol, pH 6, 45 min; FIG. 12B
Method: The feruloyl CoA, p-coumaroyl CoA, and caffeoyl CoA substrates used in the FMT assay were enzymatically synthesized using the tobacco 4-coumarate CoA-ligase (4CL) with a c-terminal HIS tag in pCRT7/CT TOPO. Following a method modified from Beuerle and Pichersky (2001) 3.3 mg of ferulic acid, coumaric acid or caffeic acid, 2 mg coenzyme A, and 6.9 mg ATP were 50 mM Tris-hydrochloride pH 8, 2.5 mM magnesium chloride in a final volume of 10 ml. The reaction was started by adding 0.25 mg 4CL protein, purified as described by the method of Beurerle and Pichershy. After a five-hour incubation at room temperature, an additional 6.9 mg ATP, 2 mg coenzyme A, and 0.25 mg purified 4CL were added and the reaction was incubated overnight. […]
The FMT activity assay contained 100 mM sodium phosphate buffer pH 6, 1 mM dithiothreitol (DTT), 1 mM feruloyl CoA, 1 mM coniferyl alcohol, 0.5 μg of purified Kenaf FMT protein and deionized water to a volume of 50 μLL. […] The flow-through was analyzed using an Acquity Ultra Performance LC with an Acquity UPLC BEH C18 1.7 μm 2.1×100 mm column and the Acquity Console and Empower 2 Software, all from Waters Corporation. […] Samples were analyzed using the following gradient conditions, 13% B, for 5 minutes, 1 minute linear gradient to 42% B, held for 4 minutes, 1 minute linear gradient to 100% B, held for 1 minute and 3 minutes at 13% B with a flow rate of 0.3 ml/minute. […]

Angelica sinensis FMT = test: FMT enzyme assay of transgenic poplar leaf extracts; type: biochemical; conditions: extracts from transgenic hybrid poplar expressing YFP-FMT; none in wild type or no enzyme control; FIG. 10B
Text: Hybrid poplar (Populus alba×grandidentata) was transformed using Agrobacterium tumefaciens EHA105 employing a common leaf disk inoculation. Two constructs were created to drive the expression of FMT in poplar: 1) 35S::YFP-FMT (cauliflower mosaic virus ubiquitous 35S promoter with an N-terminal tagged Yellow Fluorescent Protein), and 2) CesA8::YFP-FMT (poplar xylem-specific secondary cell wall specific cellulose synthase 8 promoter with an N-terminal tagged Yellow Fluorescent Protein). The binary plasmids were inserted into EHA105 using the freeze-thaw technique, and incubated overnight in liquid Woody Plant Media (WPM) supplemented with 100 μM acetosyringone. Leaf disks were cut and co-cultured with EHA105 for one hour at room temperature, blotted dry and plated abaxailly onto WPM supplemented with 0.1 μM each α-naphthalene acetic acid (NAA), 6-benzylaminopurine (BA), and thiadiazuron (TDZ) and solidified with 3% (w/v) agar and 1.1% (w/v) phytagel (WPM 0.1/0.1/0.1). […]
Purification of YFP-FMT was via GFPtrap_A (Chromotek) following the manufactures guidelines. […] These samples were analyzed by western blot and the UPLC method described in the Examples above. Formation of coniferyl ferulate was also detected by comparison of the UPLC traces of leaf extracts with authentic coniferyl ferulate.

[3] = test system: Angelica sinensis feruloyl-CoA:monolignol transferase; test: FMT enzyme assay of transgenic Arabidopsis stems; type: biochemical; conditions: none with empty vector, FIG. 11B
Text: Arabidopsis were transformed by standard procedures with the Angelica sinensis feruloyl-CoA:monolignol transferase nucleic acids described herein. […] FMT expression was detected by Reverse Transcriptase PCR of […] isolated from the transgenic Arabidopsis leaves. Enzymatic activity by the expressed FMT was detected using the assay described in Example 1.

Molecule	product formed from acyl-CoA donor substrate [1]	enzyme activity with monolignol as acyl acceptor substrate [1]	further results
CC(C)(COP(=O)(O)OP(=O)(O)OC[C@H]1O[C@@H](n2cnc3c(N)ncnc32)[C@H](O)[C@@H]1OP(=O)(O)O)[C@@H](O)C(=O)NCCC(=O)NCCSC(=O)/C=C/c1ccc(O)c(O)c1 [caffeoyl-CoA]	very little product		
COc1cc(/C=C/CO)ccc1O [coniferyl alcohol]		active	
COc1cc(/C=C/COC(=O)/C=C/c2ccc(O)c(OC)c2)ccc1O [coniferyl ferulate]			solubility of product in water / assay mixture [2]: mostly insoluble in water; also recorded: partially insoluble
COc1cc(/C=C/C(=O)SCCNC(=O)CCNC(=O)[C@H](O)C(C)(C)COP(=O)(O)OP(=O)(O)OC[C@H]2O[C@@H](n3cnc4c(N)ncnc43)[C@H](O)[C@@H]2OP(=O)(O)O)ccc1O [feruloyl-CoA]	substantial product		
CC(C)(COP(=O)(O)OP(=O)(O)OC[C@H]1O[C@@H](n2cnc3c(N)ncnc32)[C@H](O)[C@@H]1OP(=O)(O)O)[C@@H](O)C(=O)NCCC(=O)NCCSC(=O)/C=C/c1ccc(O)cc1 [p-coumaroyl-CoA]	very little product		
OC/C=C/c1ccc(O)cc1 [p-coumaryl alcohol]		active	
COc1cc(/C=C/CO)cc(OC)c1O [sinapyl alcohol]		active	
B1			FMT activity: production of coniferyl ferulate from coniferyl alcohol and feruloyl-CoA (Hibiscus cannabinus FMT): production of coniferyl ferulate (3) is visible
B2			FMT activity in leaf extracts (product peak at retention time of authentic coniferyl ferulate) (Angelica sinensis FMT): FMT activity was identified; FMT activity in ground stems (coniferyl ferulate detected) [3]: enzymatically active
